Test results as given in patent US20100022018A1 (priority 2006, published 2010).
Read-outs that look alike come from different tables or passages of the source.

How the values were obtained:
Type in all cases: biochemical
papain [1] = molecular target: T1, papain (Carica papaya, UniProt P00784); assay: Inactivation of activated papain by metal salts; conditions: metal salt added to equal 1.1× the molar amount of papain
T1 construct: purchased Sigma Chemical Company (St. Louis, Mo.)
T1 sequence (P00784 134-345): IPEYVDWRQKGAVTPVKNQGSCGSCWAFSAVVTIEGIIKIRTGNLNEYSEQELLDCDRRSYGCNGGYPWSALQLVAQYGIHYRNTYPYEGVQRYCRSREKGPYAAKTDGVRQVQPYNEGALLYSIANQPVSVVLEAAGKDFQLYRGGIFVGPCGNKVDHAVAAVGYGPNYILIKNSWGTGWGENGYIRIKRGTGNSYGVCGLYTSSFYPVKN
Excerpt: Papain was activated as described above, and the DTT was removed by gel filtration using G-25. Papain was then inactivated by adding a slight molar excess of a mono, di, tri, or tetra valent metal. […] The inhibition by the metals was essentially instantaneous.
This papain was used to assay H2S as follows.

[2] = molecular target: T2, papain inactivated by 2,2′-dithiobis-pyridine (Carica papaya, UniProt P00784)
T2 construct: purchased Sigma Chemical Company (St. Louis, Mo.)
T2 sequence (P00784 134-345): T1 sequence (P00784 134-345)

[3] = molecular target: T3, papain inactivated by methyl methanethiolsulfonate (Carica papaya, UniProt P00784)
T3 construct: purchased Sigma Chemical Company (St. Louis, Mo.)
T3 sequence (P00784 134-345): T1 sequence (P00784 134-345)

[4] = molecular target: T4, papain inactivated by 4,4′-dithiobis-pyridine (Carica papaya, UniProt P00784)
T4 construct: purchased Sigma Chemical Company (St. Louis, Mo.)
T4 sequence (P00784 134-345): T1 sequence (P00784 134-345)

papain [5] = molecular target: T1, papain; assay: Background activity of papain inactivated by disulfide-forming reagents; conditions: compared with papain inactivated with methyl methanethiolsulfonate
[6] = compared with papain inhibited by methyl methanethiolsulfonate
[7] = 50 pmoles of DTT added, turnover of 600/min

**Q.** How did the “inhibition of the activity of the activated papain” value (papain [1]) turn out when `[Cl][Hg][Cl]` [HgCl2] was run?
**A.** > 99.9%

**Q.** What does the source list for `N[C@@H](CS)C(=O)O` [Cysteine, cysteine]?
**A.** efficiency of reactivation of inactivated papain [2, 6]: somewhat more efficient; Δ A410/min ([3]; 20 picomoles added, 1 min incubation): 0.45 min⁻¹; Δ A410/min ([3]; 50 picomoles added, 1 min incubation): 1.1 min⁻¹; molecules of papain activated for each molecule of activator ([3]; disulfide linkage inactivated papain): < 1; efficiency of reactivation of inactivated papain [4, 6]: somewhat more efficient

**Q.** How did the “efficiency of reactivation of inactivated papain” value [2] turn out when sodium sulfide was run?
**A.** somewhat more efficient

**Q.** And the “molecules of activator for every one molecule of papain activated” value [3]?
**A.** ~5

**Q.** And the “efficiency of reactivation of inactivated papain” value [4]?
**A.** somewhat more efficient

**Q.** Which “rate of appearance of p-nitroanaline” value [3] does the source give for `O[C@H](CS)[C@H](O)CS` (racemic) [DTT, dithiothreitol] here?
**A.** 0.00026 M/min

**Q.** And the “amount of active papain in 200 μl” value [3, 7]?
**A.** 72 pmol

**Q.** And the “concentration of active papain needed to generate product at this rate” value [3, 7]?
**A.** 360 nM

**Q.** And the “Δ A410/min” value ([3]; 10 picomoles of DTT added, 1 minute incubation at 25° C., Tris pH 8.0)?
**A.** 0.52 min⁻¹

**Q.** And the “Δ A410/min” value ([3]; 20 picomoles of DTT added, 1 minute incubation at 25° C., Tris pH 8.0)?
**A.** 0.96 min⁻¹

**Q.** And the “Δ A410/min” value ([3]; 50 picomoles of DTT added, 1 minute incubation at 25° C., Tris pH 8.0)?
**A.** 1.9 min⁻¹

**Q.** For `c1cc(SSc2ccncc2)ccn1` [4,4′-dithiobis-pyridine], which “background level of activity exhibited by the inactivated papain” value (papain [5]) is on record?
**A.** higher than papain inactivated with methyl methanethiolsulfonate

**Q.** How did the “background level of activity exhibited by the inactivated papain” value (papain [5]) turn out when `c1ccc(SSc2ccccn2)nc1` [2,2′-dithiobis-pyridine] was run?
**A.** higher than papain inactivated with methyl methanethiolsulfonate

**Q.** With `O=[N+]([O-])[O-].[Ag+]` [AgNO3] as the molecule, how does the “inhibition of the activity of the activated papain” value (papain [1]) read?
**A.** > 99.5%
